# Earlier results as cited in patent US20170140533A1, “SYSTEM AND METHOD FOR AUTOMATED DETECTION AND MONITORING OF DYSPLASIA AND ADMINISTRATION OF IMMUNOTHERAPY AND CHEMOTHERAPY” (VISIONGATE, INC., priority 2015, published 2017).
# Columns and labels:
# [1] = system: immune response in SSc patients
# T cells = conditions: in vitro
compound,measurement,setting,value
CC#CCC(C)[C@H](O)/C=C/[C@@H]1[C@H]2C/C(=C/CCCC(=O)O)C[C@H]2C[C@H]1O (stereo partly drawn) [Iloprost],IFN gamma production,[1]; SSc patients,No effect
same,T regulatory cells number,[1]; SSc patients,reduces
same,serum IL-2,"[1]; SSc patients, serum",increases
same,T regulatory cells activity,[1]; after immune stimulation,increases
same,persistence of serum IL-2 increase after the last infusion,[1]; after the last infusion,28 days
same,RANKL,[1]; in vivo,increased
same,T cell and TNF alpha production,"[1]; in vivo, SSc patients",reduces
same,RANKL,T cells,increased
same,T cell and TNF alpha production,T cells,reduces
